Assay [1] relates to C57BL/6 mice. The assay can be described thus: Body weight loss in C57 lean mice after single s.c. dose. In kind it is in vivo. The note with it: 30 nmol/kg s.c. once. The protocol: Method: 10 week old male C57BL/6 mice were injected subcutaneously with protein once on Day1. Body weight was measured daily and five animals were used for each treatment group. Body weight was monitored for each individual animal. % BW loss=100*(BW on Day n−BW on Day 1)/(BW on Day 1). […] The area under the curve for body weight loss (%) from 0 until 8 days (AUG ΔBW 0-8d) was calculated.

Assay [2] has as its system db/db mice. Description: Non-fasting glucose in db/db mice after single s.c. dose. In kind it is in vivo. As for the experimental part: Method: 10 weeks old male db/db mice were injected subcutaneously with GLP-1 polypeptide conjugate once. […] Delta blood glucose is glucose subtracted by baseline level. […] The area under the curve for delta blood glucose from 0 until 192 hours (AUCΔBG 0-192h) was calculated.

The target in assay [3] is human serum albumin (Homo sapiens, UniProt P02768). The assay can be described thus: Human serum albumin binding by surface plasmon resonance (Biacore 8K). Particulars: human serum albumin on CM5 chip, SPR.
Experimental: Method: Binding of molecules to serum albumin was characterized by surface plasmon resonance in a Biacore 8K instrument. Serum albumin from different species was covalently bound to CM5 sensor chips surface until 4000 RU was reached. The chip was blocked by 1M ethanolamine with flowrate of 10 μL/min for 420 s. Each molecule sample was diluted and injected at a flow rate of 30 μL/min to allow for binding to chip-bound albumin for 120 s and for dissociation for 300 s. Binding buffer without molecule was sent over the chip at the flow rate of 20 seconds to allow spontaneous dissociation of bound molecule for 30 seconds.
The target in assay [4] is GLP-1 receptor (Homo sapiens, UniProt P43220). Particulars: J. Med. Chem. 2015, 58, 7370-7380; cited from earlier work.
GLP-1 receptor, sequence (P43220 24-463, species assumed): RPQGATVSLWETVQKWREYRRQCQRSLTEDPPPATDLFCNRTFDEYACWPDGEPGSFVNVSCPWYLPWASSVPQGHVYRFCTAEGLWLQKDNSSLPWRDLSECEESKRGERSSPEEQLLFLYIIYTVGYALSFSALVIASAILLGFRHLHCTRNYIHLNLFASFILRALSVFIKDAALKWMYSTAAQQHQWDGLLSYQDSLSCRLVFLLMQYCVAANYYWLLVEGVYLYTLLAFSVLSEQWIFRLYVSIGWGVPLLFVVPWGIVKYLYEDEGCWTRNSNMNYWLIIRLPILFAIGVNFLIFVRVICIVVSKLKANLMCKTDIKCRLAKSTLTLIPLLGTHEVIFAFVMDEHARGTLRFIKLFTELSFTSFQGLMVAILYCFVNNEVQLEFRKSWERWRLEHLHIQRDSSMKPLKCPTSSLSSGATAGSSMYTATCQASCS
Assay [5] deals with T1, human serum albumin (human, UniProt P02768 25-609).
T1 construct: also called HSA
The assay can be described thus: SPR (Biacore 8K), albumin on CM5 chip.

These results are taken from patent US20250276068A1, “PHARMACEUTICAL COMPOSITIONS OF POLYPEPTIDE CONJUGATES AND METHODS OF USES THEREOF” (BEIJING QL BIOPHARMACEUTICAL CO., LTD., priority 2022, published 2025).

*1 amine or outer side, *2 acyl side, *3 side chain or, on linkers, in order; H or OH if unused. Side-chain parts run from the residue outwards. [ ]: non-standard residue; d: D form. The star is where a group is joined. C18 diacid = O=C(O)CCCCCCCCCCCCCCCCC(=O)*; γGlu = O=C(O)[C@H](CCC(=O)[*:2])N[*:1]; AEEA = NCCOCCOCC(=O)O; Aib = CC(C)(N)C(=O)O

For the molecule semaglutide, the “AUC ΔBW 0-8 d (day*%)” value is reported as −9.3 day*% in assay [1] (Study 1 (FIG. 1A)) and −13.2 day*% in assay [1] (Study 2 (FIG. 1B)). Further, the “AUC ΔBG 0-192 h” value is -317.0 mmol·h/L in assay [2] (3 nmol/kg s.c. once), -583.4 mmol·h/L in assay [2] (10 nmol/kg s.c. once) and -527.1 mmol·h/L in assay [2] (30 nmol/kg s.c. once). Moreover, the “Rmax (RU)” value in assay [3] was 55.2 RU. Further, the “loss in GLP-1 receptor binding in presence of human serum albumin (HSA) relative to its unconjugated counterpart” value in assay [4] is listed as 939 fold.

B1: Molecule 002 (peptide)
peptide: H[Aib]EGTFTSDVSSYLEGQAAREFIAWLVRGGGGAQPGAQPGAQPGAQPGAQPGAQPGAQPGAQPGAQPGQK([AEEA-AEEA-γGlu-C18 diacid])P
notes: Mono-acylated GLP-1 polypeptide conjugate; also called 1006
Take B1: the binding result in assay [5] was “binds”.

B2: Molecule 012 (peptide)
peptide: H[Aib]EGTFTSDVSSYLEEQAAK([AEEA-AEEA-γGlu-C18 diacid])EFIAWLVRGGGGAQPGAQPGAQPGAQPGAQPGAQPGAQPGAQPGAQPGQK([AEEA-AEEA-γGlu-C18 diacid])P
notes: Double-acylated GLP-1 polypeptide conjugate
In the case of B2, in assay [5], the binding result was “binds”.

B3: Molecule 019 (peptide)
peptide: H[Aib]EGTFTSDVSSYLEEQAAREFIAWLVRGGGGAQPGAQPGAQPGAQPGAQPGAQPGAQPGAQPGAQPGQK([AEEA-AEEA-γGlu-C18 diacid])P
notes: Mono-acylated GLP-1 polypeptide conjugate; also called 1023
Take B3: the binding result in assay [5] is listed as “binds”.
